The subject of the assay is T lymphocytes (normal mouse spleen cells) stimulated with ConA. As to the kind of experiment: Mouse Spleen Cell ConA Blastogenesis Assay. Type of assay: cell-based, mouse (C57Bl/6). The note with it: for inhibition at 100 µg/mL / inhibition at 1 µg/mL / inhibition at 2.5 µg/mL / inhibition at 10 µg/mL / inhibition at 25 µg/mL / inhibition at 0.01 µg/mL / inhibition at 0.1 µg/mL / inhibition at 0.001 µg/mL: Mus musculus, T-lymphocyte. From the text: It is well known that several plant lectins, when cultured in vitro with lymphocytes, stimulate cellular activation and proliferation. Concanavolin, (ConA) selectively stimulates the blastogenic response of T lymphocytes.
Six to 8 week old male C57Bl/6 mice were purchased from Harlan Sprague Dawley (Indianapolis, Ind.).
Spleens were removed and were homogenized to obtain a single cell suspension. Erythrocytes were lysed by hypotonic shock. Upon determination of the viability and concentration of the lymphoid cells, they were adjusted to 4×10^6 cells/ml in culture medium (RPMI-1640) supplemented with 10% fetal bovine serum; 100 ug/ml streptomycin; 100 U/ml penicillin, 0.2M hepes buffer; 5×10^-5 M 2-mercaptoethanol and 2 mM glutamine). seeded into microtiter plate wells at 2×10^5 cells/0.050 ml/well. To these cultures were added various doses of experimental compounds and ConA at a final concentration of 4 or 1 ug/ml. Control cultures consisted of cells, ConA and culture medium containing the vehicle, DMSO only. […] For the testing of the methyl 1,3-O-isopropylidene-6-O-n-heptyl-α-D-fructofuranoside compound indomethacin and NDGA were used as controls. All cultures were run in triplicate.
Solutions of compounds of the invention in DMSO were prepared and dilutions were made in culture medium. Assay concentrations were either: 1, 2.5, 10, 25, 100, 300 and 750 ug/ml or 0.001, 0.01, 0.1, 1, 2.5, 10, 25 and 100 ug/ml.
Cultures were incubated for 3 days at 37° C. in a humidified atmosphere of 5% of CO2 in air. For the last 18 hours of culture, 1 uCi of ^3 H-thymidine was also incubated in each well. The cells were precipitated by a multi-channel harvester. The amount of ^3 H-thymidine incorporated by the cultures, as a measure of cell proliferation, was measured in a liquid scintillation counter. The amount of radioactive incorporation is proportional to the amount of cellular proliferation in individual wells. The students T test was used to determine the significance of the difference between experimental and control values.

[1] abbreviates: ConA 1 ug/ml, compound 1 ug/ml, read-out: % change from control, ConA blastogenic response.
The mark [2] stands for this setting: ConA 1 ug/ml, compound 2.5 ug/ml, read-out: % change from control, ConA blastogenic response.
Where [3] appears, read: ConA 1 ug/ml, compound 10 ug/ml, read-out: % change from control, ConA blastogenic response.
[4] abbreviates: ConA 1 ug/ml, compound 25 ug/ml, read-out: % change from control, ConA blastogenic response.
[5] abbreviates: ConA 1 ug/ml, compound 100 ug/ml, read-out: % change from control, ConA blastogenic response.
Where [6] appears, read: ConA 4 ug/ml, compound 1 ug/ml, read-out: % change from control, ConA blastogenic response.
The mark [7] stands for this setting: ConA 4 ug/ml, compound 2.5 ug/ml, read-out: % change from control, ConA blastogenic response.
Setting [8] is: ConA 4 ug/ml, compound 10 ug/ml, read-out: % change from control, ConA blastogenic response.
Where [9] appears, read: ConA 4 ug/ml, compound 25 ug/ml, read-out: % change from control, ConA blastogenic response.
Where [10] appears, read: ConA 4 ug/ml, compound 100 ug/ml, read-out: % change from control, ConA blastogenic response.
Setting [11] is: ConA 1 ug/ml, 0.01 ug/ml, read-out: % Change from Control (Table II).
Setting [12] is: ConA 1 ug/ml, compound 0.01 ug/ml, read-out: % change from control, ConA blastogenic response.
[13] abbreviates: ConA 1 ug/ml, compound 0.1 ug/ml, read-out: % change from control, ConA blastogenic response.
The mark [14] stands for this setting: ConA 4 ug/ml, 0.01 ug/ml, read-out: % Change from Control (Table II).
The mark [15] stands for this setting: ConA 4 ug/ml, compound 0.01 ug/ml, read-out: % change from control, ConA blastogenic response.
The mark [16] stands for this setting: ConA 4 ug/ml, compound 0.1 ug/ml, read-out: % change from control, ConA blastogenic response.

“Also recorded” adds a separate entry of the source. Like-named read-outs stand apart in the source and are kept apart here.

`CC1(C)OCC(C2OC3OC(C)(C)OC3C2NCCCO)O1` [IIk, 1,2:5,6-Di-O-isopropylidene-3-deoxy-3-amino-1'-(3'-hydroxy-n-propyl)-α-D-glucofuranose]: the inhibition at 100 µg/mL runs as follows: (100 ug/ml, read-out: strong inhibition of ConA stimulated T lymphocyte proliferation) less than 50%; under setting [5], 95%; under setting [10], 83%. In addition, the inhibition at 1 µg/mL reads like this: under setting [1], 20%; under setting [6], 5%. In addition, the inhibition at 2.5 µg/mL by setting is: under setting [2], 31%; under setting [7], 0%. Besides, the inhibition at 10 µg/mL under setting [3] is 38% and the inhibition at 10 µg/mL under setting [8] worked out at 4%. The inhibition at 25 µg/mL came to 45% under setting [4] and 5% under setting [9].
Consider `CCCCCCCC(=O)O[C@@H]1[C@@H](CO)O[C@@]2(OC)COC(C)(C)O[C@@H]12` [Ih, methyl 1,3-O-isopropylidene-4-O-octanoyl-α-D-fructofuranoside], for which the inhibition at 0.01 µg/mL under setting [11] was -12%, the inhibition at 0.01 µg/mL under setting [12] is -32%, the inhibition at 0.01 µg/mL under setting [14] is -18% and the inhibition at 0.01 µg/mL under setting [15] was -29%. Besides, the inhibition at 0.1 µg/mL runs as follows: under setting [13], -29%; under setting [16], -14%. Moreover, the inhibition at 1 µg/mL runs as follows: under setting [1], -61%; under setting [6], -16%. The inhibition at 2.5 µg/mL by setting is: under setting [2], -63%; under setting [7], -8%. The inhibition at 10 µg/mL runs as follows: under setting [3], 4%; under setting [8], 22%. Also, the inhibition at 25 µg/mL is, setting by setting: under setting [4], -39%; under setting [9], 14%. For the same compound, the inhibition at 100 µg/mL reads like this: under setting [5], 74%; under setting [10], 90%.
Regarding `CCCCCCCC(=O)OC[C@H]1O[C@@]2(OC)COC(C)(C)O[C@H]2[C@@H]1O` [Ii, methyl 1,3-O-isopropylidene-6-O-octanoyl-α-D-fructofuranoside], the “effect on ConA T lymphocyte proliferation in words” value is reported as “less potent inhibitor of the mitogen induced T lymphocyte proliferative response; also recorded: significant inhibition observed at all dose levels on the 1 ug/ml ConA cultures”. The inhibition at 0.01 µg/mL under setting [11] is -11%. In addition, the inhibition at 0.01 µg/mL under setting [12] is -7%. The inhibition at 0.1 µg/mL under setting [13] was -21%. For the same compound, the inhibition at 1 µg/mL under setting [1] is -52%. For the same compound, the inhibition at 2.5 µg/mL under setting [2] was -62%. In addition, the inhibition at 10 µg/mL under setting [3] is -13%. In addition, the inhibition at 25 µg/mL under setting [4] is -41%. For the same compound, the inhibition at 100 µg/mL under setting [5] is 27%. The inhibition at 0.01 µg/mL under setting [14] was -28%. Moreover, the inhibition at 0.01 µg/mL under setting [15] was -37%. Moreover, under setting [16], the inhibition at 0.1 µg/mL is -28%. The inhibition at 1 µg/mL under setting [6] is -17%. Further, the inhibition at 2.5 µg/mL under setting [7] was -22%. The inhibition at 10 µg/mL under setting [8] came to 1%. The inhibition at 25 µg/mL under setting [9] was -7%. Besides, the inhibition at 100 µg/mL under setting [10] came to 47%.
Consider `CCCCCCCC(=O)OC[C@H]1O[C@@]2(OC)COC(C)(C)O[C@H]2[C@@H]1OC(=O)CCCCCCC` [Ij, methyl 1,3-O-isopropylidene-4,6-di-O-octanoyl-α-D-fructofuranoside], for which the inhibition at 0.01 µg/mL under setting [11] was found to be 60%, the inhibition at 0.01 µg/mL under setting [12] was found to be 100%, the inhibition at 0.01 µg/mL under setting [14] was 3% and the inhibition at 0.01 µg/mL under setting [15] was -42%. Also, the inhibition at 0.1 µg/mL worked out at 100% under setting [13] and 12% under setting [16]. For the same compound, the inhibition at 1 µg/mL under setting [1] was 100% and the inhibition at 1 µg/mL under setting [6] is -9%. Moreover, the inhibition at 2.5 µg/mL reads like this: under setting [2], 100%; under setting [7], 15%. Further, the inhibition at 10 µg/mL worked out at 100% under setting [3] and 43% under setting [8]. Moreover, the inhibition at 25 µg/mL turned out to be 100% under setting [4] and 79% under setting [9]. Besides, the inhibition at 100 µg/mL runs as follows: under setting [5], 100%; under setting [10], 92%.
Consider `CCCCCCCO[C@@H]1[C@@H](CO)O[C@@]2(CO)OC(C)(C)O[C@@H]12` [Ik, 2,3-O-isopropylidene-4-O-heptyl-β-D-fructofuranose], for which the “Blastogenic response of normal spleen cells to Con-A” value (“Blastogenic response” for short) reads like this: (ConA 1 ug/ml, compound 0.001 ug/ml) 139.5 ± 4.0 × 10^-3 cpm; (ConA 1 ug/ml, compound 0.01 ug/ml) 146.4 ± 5.2 × 10^-3 cpm; (ConA 1 ug/ml, compound 0.1 ug/ml) 145 ± 6.9 × 10^-3 cpm; (ConA 1 ug/ml, compound 1 ug/ml) 119.1 ± 3.3 × 10^-3 cpm; (ConA 1 ug/ml, compound 2.5 ug/ml) 98.5 ± 7.0 × 10^-3 cpm; (ConA 1 ug/ml, compound 25 ug/ml) 1.4 ± 0.2 × 10^-3 cpm. The “Blastogenic response” value (ConA 1 ug/ml, compound 100 ug/ml) is 0.3 ± 0.1 × 10^-3 cpm; the “Blastogenic response” value (ConA 4 ug/ml, compound 0.001 ug/ml) is reported as 167.1 ± 16.7 × 10^-3 cpm; the “Blastogenic response” value (ConA 4 ug/ml, compound 0.01 ug/ml) was 212.6 ± 16.3 × 10^-3 cpm; the “Blastogenic response” value (ConA 4 ug/ml, compound 0.1 ug/ml) is given as 183.6 ± 10.4 × 10^-3 cpm; the “Blastogenic response” value (ConA 4 ug/ml, compound 1 ug/ml) is 135.3 ± 10.8 × 10^-3 cpm; the “Blastogenic response” value (ConA 4 ug/ml, compound 2.5 ug/ml) is listed as 90.4 ± 7.8 × 10^-3 cpm. Further, the “Blastogenic response” value (ConA 4 ug/ml, compound 10 ug/ml) is 18.4 ± 0.2 × 10^-3 cpm; the “Blastogenic response” value (ConA 4 ug/ml, compound 25 ug/ml) is 2.5 ± 0.4 × 10^-3 cpm; the “Blastogenic response” value (ConA 4 ug/ml, compound 100 ug/ml) is 0.4 ± 0.1 × 10^-3 cpm. The inhibition at 0.001 µg/mL is -11% (ConA 1 ug/ml, compound 0.001 ug/ml, read-out: % change from control, ConA blastogenic response) and 8% (ConA 4 ug/ml, compound 0.001 ug/ml, read-out: % change from control, ConA blastogenic response). Besides, the inhibition at 0.01 µg/mL is -8% under setting [12] and -14% under setting [15]. The inhibition at 0.1 µg/mL under setting [13] was found to be 3% and the inhibition at 0.1 µg/mL under setting [16] was found to be 8%. The inhibition at 1 µg/mL was determined as 19% under setting [1] and 35% under setting [6]. Also, the inhibition at 2.5 µg/mL reads like this: under setting [2], 21%; under setting [7], 51%. Also, the inhibition at 10 µg/mL under setting [3] was found to be 79% and the inhibition at 10 µg/mL under setting [8] amounted to 91%. Besides, the inhibition at 25 µg/mL is, setting by setting: under setting [4], 99%; under setting [9], 99%. Besides, the inhibition at 100 µg/mL runs as follows: under setting [5], 100%; under setting [10], 100%.

For the origin of these results see patent US5298494A, “Monosaccharides having anti-proliferation and anti-inflammatory activity, compositions and uses thereof” (Greenwich Pharmaceuticals Incorporated, priority 1993, dated 1994).
